Here are results for two compounds from patent US11993640B2, “Treating inflammatory lung disease” (United States Government as represented by the Department …, priority 2019, dated 2024).

SMILES strings stand for the structures. Non-standard residues stand in square brackets, D forms with d. Residues, ends and D or L forms follow the SMILES beside them. *: point of attachment. Phe(4-Cl) = N[C@@H](Cc1ccc(Cl)cc1)C(=O)O; hArg = N=C(N)NCCCC[C@H](N)C(=O)O; 12Ado = NCCCCCCCCCCCC(=O)O; Nle = CCCC[C@H](N)C(=O)O; Orn = NCCC[C@H](N)C(=O)O; Abu = CC[C@H](N)C(=O)O; PhAc = O=C(Cc1ccccc1)*

Holding throughout (assay type): cell-based, human
Details in all cases: 5 μM, 72 h; relative to MIA602 = 1; Table 3A

The test system of test [1] is J82 cells. In words: In vitro cell viability, urothelial cancer J82. The procedure:
(§1) The inhibitory effects of the various synthesized GHRH antagonists were tested in cell proliferation assays in various human cancer cell lines including stomach cancer (KATOIII, N87), colon cancer (HT-29), urothelial cancer (J82, RT4), pancreatic cancer (PANC-1, CFPAC-1), prostatic cancer (PC3), breast cancer (MX-1, HCC1806), ovarian cancer (SK-OV-3, OVCAR-3) and lung cancer (HCC827, H460).
(§2) Cell culture. Human cancer cell lines including pancreatic (PANC-1 and CFPAC-1), lung (HCC827 and H460), stomach (NCI-N87 and KATOIII), urothelial (J82, RT4), prostatic (PC3), breast (MX-1 and HCC 1806), colorectal (HT-29), and ovarian (SK-OV-3 and OVCAR-3) were obtained from the American Type Culture Collection (ATCC) and cultured at 37° C. in a humidified 95% air/5% CO2 atmosphere in the medium recommended by ATCC.
(§3) In vitro cell viability. Cell viability was analyzed as follows: cancer cells including pancreatic (PANC-1 and CFPAC-1), lung (HCC827 and H460), stomach (NCI-N87 and KATOIII), urothelial (J82, RT4), prostatic (PC3) and breast (MX-1 and HCC 1806), colorectal (HT-29) and ovarian (SK-OV-3 and OVCAR-3) were grown on 96 well plates to ˜60% confluence, the cells were starved for 24 h in culture medium containing 0.5% FBS. Cells were then treated with GHRH antagonists MIA602 AVR compounds at concentrations of 1, 2.5 or 5 μM, or vehicle (0.1% DMSO) in quintuplicates for 72 hours. The medium was replaced every 48 hours. Cell viability was measured using CellTiter 96 aqueous one solution kit (Promega). Inhibitory effects of tested AVR compounds in comparison to that of MIA602 are presented as inhibitory potency.
(§4) Inhibitory effects of selected AVR compounds in comparison to that of MIA602 are presented as inhibitory potency (e.g., percentage of inhibition). […] The cell lines tested including lung cancer HCC827 (FIG. 2A), pancreatic cancer CFPAC-1 (FIG. 2B), stomach cancer N87 (FIG. 2C), colon cancer HT-29 (FIG. 2D), breast cancers MX-1 and HCC1806 (FIGS. 2E, F). Based on the results of cell proliferation assay after cancer cells were treated with antagonist at concentration of 5 μM for 72H, the relative inhibitory potency of AVR antagonists in comparison to MIA-602 is summarized in Table 3 A and B. Over 60 AVR compounds were tested in 12 cancer cell lines.

The subject of test [2] is HCC827 cells. As to the kind of experiment: In vitro cell viability, lung cancer HCC827. The essentials: (§5)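 Cells grown to ~60% confluence and serum-starved 24 h in 0.5% FBS, then exposed to antagonists at 5 μM (some at 2 μM) for 72 h in quintuplicate, with medium replaced every 48 h. Viability read by CellTiter 96 AQueous One (MTS). Values are inhibition relative to MIA602.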

The test system of test [3] is HCC1806 cells. In words: In vitro cell viability, breast cancer HCC1806. Here is the method: as §1, §2, §3, §4
(§6) Based on the results of cell proliferation assay after cancer cells were treated with antagonist at concentration of 5 µM for 72H, * at concentration of 2 µM for 72 H.

The test system of test [4] is PC3 cells. As to the kind of experiment: In vitro cell viability, prostatic cancer PC3. Here is the method: as §1, §2, §3
(§7) Inhibitory effects of selected AVR compounds in comparison to that of MIA602 are presented as inhibitory potency (e.g., percentage of inhibition). […] The cell lines tested including lung cancer HCC827 (FIG. 2A), pancreatic cancer CFPAC-1 (FIG. 2B), stomach cancer N87 (FIG. 2C), colon cancer HT-29 (FIG. 2D), breast cancers MX-1 and HCC1806 (FIGS. 2E, F). […]

In test [5] the test system is PANC-1 cells. As to the kind of experiment: In vitro cell viability, pancreatic cancer PANC-1. The procedure: as §1, §2, §3, §4
Test [6] has as its system NCI-N87 cells. In words: In vitro cell viability (CellTiter 96), stomach cancer N87. Here is the method: as §1, §2, §3, §4, §6
In test [7] the test system is CFPAC-1 cells. In words: In vitro cell viability, pancreatic cancer CFPAC-1. In a few lines:
as §5

The subject of test [8] is KATOIII cells. In words: In vitro cell viability, stomach cancer KATOIII. The procedure:
as §1, §2, §3, §4

Test [9] relates to MX-1 cells. As to the kind of experiment: In vitro cell viability, breast cancer MX-1. Here is the method: as §1, §2, §3, §4, §6
The test system of test [10] is RT4 cells. In words: In vitro cell viability, urothelial cancer RT4. The procedure:
as §1, §2, §3, §7

Regarding `CCCC[C@H](NC(=O)[C@@H](NC(=O)[C@H](CC(=O)O)NC(=O)[C@H](CCC(N)=O)NC(=O)[C@H](CC(C)C)NC(=O)[C@H](CC(C)C)NC(=O)[C@H](CCCN)NC(=O)[C@H](Cc1c[nH]cn1)NC(=O)[C@H](C)NC(=O)[C@H](CO)NC(=O)[C@H](CC(C)C)NC(=O)[C@H](CCC(N)=O)NC(=O)[C@H](CC)NC(=O)[C@H](CC(C)C)NC(=O)[C@@H](NC(=O)[C@H](CCCCN)NC(=O)[C@H](CCCNC(=N)N)NC(=O)[C@H](Cc1ccc(OC)cc1)NC(=O)[C@H](CCCNC(=N)N)NC(=O)[C@H](C)NC(=O)[C@@H](NC(=O)[C@H](Cc1ccc(Cl)cc1)NC(=O)[C@@H](NC(=O)[C@H](C)NC(=O)[C@H](CC(=O)O)NC(=O)[C@@H](CCCNC(=N)N)NC(=O)[C@H](Cc1ccc(O)cc1)NC(=O)CCCCCCCCCCCNC(=O)Cc1ccccc1)[C@@H](C)CC)[C@@H](C)O)C(C)C)[C@@H](C)CC)C(=O)N[C@H](CCCNC(=N)N)C(=O)N[C@@H](CCCCNC(=N)N)C(N)=O` [AVR-104, PhAC-Ada-Tyr-DArg-Asp-Ala-Ile-Cpa-Thr-Ala-Arg-Tyr(Me)-Arg-Lys-Val-Leu-Abu-Gln-Leu-Ser-Ala-His-Orn-Leu-Leu-Gln-Asp-Ile-Nle-DArg-Har-NH2] ({PhAc-12Ado}-Y[dR]DAI[Phe(4-Cl)]TARY(Me)RKVL[Abu]QLSAH[Orn]LLQDI[Nle][dR][hArg]-NH2), the “Relative inhibitory potency, Urothelial J82” value in [1] is reported as 3.377. In addition, the “Relative inhibitory potency, Lung HCC827” value in [2] stood at 1.525. In addition, in [3], the “Relative inhibitory potency, Breast HCC1806” value came out at 1.220. Moreover, the “Relative inhibitory potency, Prostatic PC3” value in test [4] was 1.440. In [5], the “Relative inhibitory potency, Pancreatic Panc-1” value came to 1.114. Besides, in [6], the “Relative inhibitory potency, Stomach N87” value worked out at 2.291. Further, the “Relative inhibitory potency, Pancreatic CFPAC-1” value in [7] is reported as 1.502. Moreover, the “Relative inhibitory potency, Stomach KATOIII” value in [8] came to 1.321. For the same compound, in [9], the “Relative inhibitory potency, Breast MX-1” value is on record as 1.310. The “Relative inhibitory potency, Urothelial RT4” value in test [10] is recorded as 1.697.
Take `CCCC[C@H](NC(=O)[C@@H](NC(=O)[C@H](CC(=O)O)NC(=O)[C@H](CCC(N)=O)NC(=O)[C@H](CC(C)C)NC(=O)[C@H](CC(C)C)NC(=O)[C@H](CCCN)NC(=O)[C@H](Cc1c[nH]cn1)NC(=O)[C@H](C)NC(=O)[C@H](CO)NC(=O)[C@H](CC(C)C)NC(=O)[C@H](CCC(N)=O)NC(=O)[C@H](CC)NC(=O)[C@H](CC(C)C)NC(=O)[C@@H](NC(=O)[C@H](CCCCN)NC(=O)[C@H](CCCNC(=N)N)NC(=O)[C@H](Cc1ccc(OC)cc1)NC(=O)[C@H](CCCNC(=N)N)NC(=O)[C@H](C)NC(=O)[C@@H](NC(=O)[C@H](Cc1ccc(Cl)cc1)NC(=O)[C@@H](NC(=O)[C@H](C)NC(=O)[C@H](CC(=O)O)NC(=O)[C@@H](CCCNC(=N)N)NC(=O)[C@H](Cc1ccc(O)cc1)NC(=O)CCCCCCCCCCCNC(=O)[C@H](N)Cc1ccccc1)[C@@H](C)CC)[C@@H](C)O)C(C)C)[C@@H](C)CC)C(=O)N[C@H](CCCNC(=N)N)C(=O)N[C@@H](CCCCNC(=N)N)C(N)=O` [AVR-120, D-Phe-Ada-Tyr-DArg-Asp-Ala-Ile-Cpa-Thr-Ala-Arg-Tyr(Me)-Arg-Lys-Val-Leu-Abu-Gln-Leu-Ser-Ala-His-Orn-Leu-Leu-Gln-Asp-Ile-Nle-DArg-Har-NH2] (H-[dF][12Ado]Y[dR]DAI[Phe(4-Cl)]TARY(Me)RKVL[Abu]QLSAH[Orn]LLQDI[Nle][dR][hArg]-NH2; N-terminus assumed): in test [1], the “Relative inhibitory potency, Urothelial J82” value amounted to 4.841. In addition, the “Relative inhibitory potency, Lung HCC827” value in [2] was 1.423. Besides, the “Relative inhibitory potency, Pancreatic Panc-1” value in test [5] is reported as 1.306. Besides, in test [6], the “Relative inhibitory potency, Stomach N87” value turned out to be 2.339. The “Relative inhibitory potency, Pancreatic CFPAC-1” value in test [7] worked out at 1.617. Moreover, the “Relative inhibitory potency, Stomach KATOIII” value in [8] is 1.271. Moreover, the “Relative inhibitory potency, Urothelial RT4” value in test [10] worked out at 1.611.
